Reference: patent US20240343747A1, “Heteroaryl compounds as inhibitors of TYK2, composition and application thereof” (Accro Bioscience (HK) Limited, priority 2021, published 2024)

How the values were obtained:
[1] = Pharmacokinetic evaluation in mice; assay type: in vivo; settings: for plasma exposure and bioavailability in mice (in words): conclusion from Table 9; for AUC / Vd / clearance / half-life / Cmax / Tmax: male, mouse, plasma; for AUC / Vd / clearance / half-life / Cmax / Tmax / F: mice
Procedure: The mice pharmacokinetic characteristics of compounds were tested by standard protocols. The candidate compounds were made into clear solution for single intravenous injection (i.v.) and suspension for oral administration (p.o.). Intravenous vehicle is 5% DMSO+10% Solutol+85% Saline. Of which adjusts pH to 3 for B37. While oral vehicle is 0.5% CMCNa for B2 and B22, 5% DMSO+10% Solutol+85% Saline, PH˜3 for B37, 5% DMSO+10% Solutol+85% Saline for B41. The experiment used 6 male mice and 3 mice for intravenous at a dose of 2 mg/kg. Plasma samples were collected at 0 h (before dosing) and 0.083 h, 0.25 h, 0.5 h, 1 h, 2 h, 4 h, 8 h, 24 h after dosing. Another 3 mice were orally administrated with a dose of 10 mg/kg. Plasma samples were collected at 0 h (before dosing) and 0.25 h, 0.5 h, 1 h, 2 h, 4 h, 6 h, 8 h, 24 h after dosing.
Blood samples were placed in tubes containing K2-EDTA and stored on ice until centrifuged. The blood samples were centrifuged at 6800 g for 6 minutes at 2-8° C. within 1 h after collected, and stored frozen at approximately −80° C.
The analytical results were confirmed using quality control samples for intra-assay variation. The accuracy of >66.7% of the quality control samples and 50% of all QC samples at each concentration level were between 80-120% of the known value(s).
Standard set of parameters including area under the curve (AUC(0-t) and AUC(0-∞)), elimination half-live (T1/2), maximum plasma concentration (Cmax), time to reach maximum plasma concentration (Tmax) were calculated using noncompartmental analysis modules in FDA certified pharmacokinetic program Phoenix WinNonlin 7.0 (Pharsight, USA) by the Study Director.

[2] = Plasma protein binding test, dog; assay type: in vitro ADME
Procedure: • 1. Test compound and control compound were dissolved in dimethyl sulfoxide (DMSO) to achieve 10 mM stock solutions. DMSO working solutions were prepared at 400 μM. To prepare the loading matrix, compound working solutions (5 μL) were added in a 1:200 ratio to blank matrix (995 μL), and mixed thoroughly. • 2. To prepare the time zero (TO) samples to be used for recovery determination, 50 μL aliquots of loading matrix were transferred in triplicate to the sample collection plate. The samples were immediately matched with opposite blank buffer to obtain a final volume of 100 μL of 1:1 matrix/dialysis buffer (v/v) in each well. 500 μL of stop solution were added to these TO samples. They were then stored at 2-8° C. pending further processes along with other post-dialysis samples. • 3. To load the dialysis device, an aliquot of 150 μL of the loading matrix was transferred to the donor side of each dialysis well in triplicate, and 150 μL of the dialysis buffer was loaded to the receiver side of the well. The dialysis plate was placed in a humidified incubator at 37° C. with 5% CO2 on a shaking platform that rotated slowly (about 100 rpm) for 4 hours • 4. At the end of the dialysis, aliquots of 50 μL of samples were taken from both the buffer side and the matrix side of the dialysis device. These samples were transferred into new 96-well plates. Each sample was mixed with an equal volume of opposite blank matrix (buffer or matrix) to reach a final volume of 100 μL of 1:1 matrix/dialysis buffer (v/v) in each well. All samples were further processed by adding 500 μL of stop solution containing internal standards. The mixture was vortexed and centrifuged at 4000 rpm for about 20 minutes. An aliquot of 100 μL of supernatant of all the samples was then removed for LC-MS/MS analysis • 5. The single blank samples were prepared by transferring […] of blank matrix to a 96 well plate and adding 50 μL of blank PBS buffer to each well. The blank plasma must match the species of plasma used in the plasma side of the well. […]
The % Unbound and % Bound were calculated using the following equations: […]

[3] = target: TYK2 JH2 (Homo sapiens (Human), UniProt P29597); assay: Competitive binding assay (kinase-tagged phage, qPCR), TYK2 JH2
TYK2 JH2, sequence (P29597 589-875): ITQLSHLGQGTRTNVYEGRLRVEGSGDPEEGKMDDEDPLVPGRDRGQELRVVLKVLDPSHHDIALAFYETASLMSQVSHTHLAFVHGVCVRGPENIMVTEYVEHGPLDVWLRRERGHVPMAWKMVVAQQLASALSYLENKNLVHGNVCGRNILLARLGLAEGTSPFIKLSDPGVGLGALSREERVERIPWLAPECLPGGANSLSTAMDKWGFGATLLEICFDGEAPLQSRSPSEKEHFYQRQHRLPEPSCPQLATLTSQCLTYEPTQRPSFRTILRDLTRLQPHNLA
Procedure: For most assays, kinase-tagged T7 phage strains were prepared in an E. coli host derived from the BL21 strain. E. coli were grown to log-phase and infected with T7 phage and incubated with shaking at 32° C. until lysis. The lysates were centrifuged and filtered to remove cell debris. The remaining kinases were produced in HEK-293 cells and subsequently tagged with DNA for qPCR detection. Streptavidin coated magnetic beads were treated with biotinylated small molecule ligands for 30 minutes at room temperature to generate affinity resins for kinase assays. The liganded beads were blocked with excess biotin and washed with blocking buffer (SeaBlock (Pierce), 1% BSA, 0.05% Tween 20, 1 mM DTT) to remove unbound ligand and to reduce non-specific binding. […] Test compounds were prepared as 111X stocks in 100% DMSO. Dissociation constants (Kds) were determined using an 11-point 3-fold compound dilution series with three DMSO control points. All compounds for Kd measurements are distributed by acoustic transfer (non-contact dispensing) in 100% DMSO. The compounds were then diluted directly into the assays such that the final concentration of DMSO was 0.9%. All reactions performed in polypropylene 384-well plate. Each was a final volume of 0.02 ml. The assay plates were incubated at room temperature with shaking for 1 hour and the affinity beads were washed with wash buffer (1×PBS, 0.05% Tween 20). The beads were then re-suspended in elution buffer (1×PBS, 0.05% Tween 20, 0.5 μM nonbiotinylated affinity ligand) and incubated at room temperature with shaking for 30 minutes. The kinase concentration in the eluates was measured by qPCR.
An 11-point 3-fold serial dilution of each test compound was prepared in 100% DMSO at 100× final test concentration and subsequently diluted to 1× in the assay (final DMSO concentration=1%). Most Kds were determined using a compound top concentration=30,000 nM. If the initial Kd determined was <0.5 nM (the lowest concentration tested), the measurement was repeated with a serial dilution starting at a lower top concentration.
Binding constants (Kds) were calculated with a standard dose-response curve using the Hill equation: […]
The Hill Slope was set to −1.
Curves were fitted using a non-linear least square fit with the Levenberg-Marquardt algorithm.

## [2H]C([2H])([2H])n1nc(-c2cccc(Nc3cc(NC(=O)C4CC4)ncc3C(=O)CC)c2OC)cc1P(C)(C)=O [Compound B22]
[1]
  plasma exposure and bioavailability in mice (in words): good plasma exposure and bioavailability
[1]; iv, i.v. 2 mg/kg
  AUC: 1350 ng·h/mL
  Vd: 3.1 L/kg
  clearance: 25.4 mL/min/kg
  half-life: 84 min
[1]; po, p.o. 10 mg/kg
  AUC: 6370 ng·h/mL
  Cmax: 2630 ng/mL
  Tmax: 19.8 min
[1]; p.o. 10 mg/kg
  F: 94%
[2]
  fraction unbound at 4 h, 2 μM: 0.156
[3]
  Kd: 0.063 nM

## CCC(=O)c1cnc(NC(=O)C2CC2)cc1Nc1cccc(-c2cc(P(=O)(C3CC3)C3CC3)n(C)n2)c1OC [Compound B37, N-(4-((3-(5-(dicyclopropylphosphoryl)-1-methyl-1H-pyrazol-3-yl)-2-methoxyphenyl)amino)-5-propionylpyridin-2-yl)cyclopropanecarboxamide]
[1]
  plasma exposure and bioavailability in mice (in words): good plasma exposure and bioavailability
[1]; iv, i.v. 2 mg/kg
  AUC: 2160 ng·h/mL
  Vd: 0.84 L/kg
  clearance: 15.5 mL/min/kg
  half-life: 37.8 min
[1]; po, p.o. 10 mg/kg
  AUC: 8420 ng·h/mL
  Cmax: 4250 ng/mL
  Tmax: 25.2 min
[1]; p.o. 10 mg/kg
  F: 78%
[3]
  Kd: 0.044 nM

## CCC(=O)c1cnc(NC(=O)C2CC2)cc1Nc1cccc(-c2cc(P(C)(C)=O)n(C)n2)c1OC [Compound B2, N-(4-((3-(5-(dimethylphosphoryl)-1-methyl-1H-pyrazol-3-yl)-2-methoxyphenyl)amino)-5-propionylpyridin-2-yl)cyclopropanecarboxamide]
[1]
  plasma exposure and bioavailability in mice (in words): good plasma exposure and bioavailability
[1]; iv, i.v. 2 mg/kg
  AUC: 1940 ng·h/mL
  Vd: 1.5 L/kg
  clearance: 17.2 mL/min/kg
  half-life: 60 min
[1]; po, p.o. 10 mg/kg
  AUC: 4140 ng·h/mL
  Cmax: 1180 ng/mL
  Tmax: 180 min
[1]; p.o. 10 mg/kg
  F: 43%
[2]
  fraction unbound at 4 h, 2 μM: 0.119
[3]
  Kd: 0.043 nM

## [2H]C([2H])([2H])NC(=O)c1nnc(NC(=O)C2CC2)cc1Nc1cccc(-c2cc(P(=O)(C3CC3)C3CC3)n(C)n2)c1OC [Compound B41, 6-(cyclopropanecarboxamido)-4-((3-(5-(dicyclopropylphosphoryl)-1-methyl-1H-pyrazol-3-yl)-2-methoxyphenyl)amino)-N-(methyl-d3)pyridazine-3-carboxamide]
[1]
  plasma exposure and bioavailability in mice (in words): good plasma exposure and bioavailability
[1]; iv, i.v. 2 mg/kg
  AUC: 2670 ng·h/mL
  Vd: 1.2 L/kg
  clearance: 12.7 mL/min/kg
  half-life: 66 min
[1]; po, p.o. 10 mg/kg
  AUC: 11900 ng·h/mL
  Cmax: 6560 ng/mL
  Tmax: 30 min
[1]; p.o. 10 mg/kg
  F: 89%
[2]
  fraction unbound at 4 h, 2 μM: 0.019
